Experimental data as given in the kinase profiling compilation of Christmann-Franck et al. (2016).
Values joined by “and” are separate entries in the source; they are usually repeats but may differ in a detail not shown here. Identical values can stand only once.

Columns and labels:
Test in all cases: radiometric filter-binding kinase assay, Kinase HotSpot
Conditions in all cases: compound 0.5 µM; ATP 10 µM
[1] = target: PAK7 (human) (UniProt Q9P286)
[2] = target: NTRK2 (human) (UniProt Q16620)
[3] = target: TYRO3 (human) (UniProt Q06418)
[4] = target: PRKACG (human) (UniProt P22612)
[5] = target: YES1 (human) (UniProt P07947)
[6] = target: ULK3 (human) (UniProt Q6PHR2)
[7] = target: PIM3 (human) (UniProt Q86V86)
[8] = target: MAP3K10 (human) (UniProt Q02779)
[9] = target: ADRBK2 (human) (UniProt P35626)
[10] = target: BRAF (human) (UniProt P15056)
[11] = target: TLK2 (human) (UniProt Q86UE8)
[12] = target: ADRBK1 (human) (UniProt P25098)
[13] = target: STK38 (human) (UniProt Q15208)
[14] = target: STK25 (human) (UniProt O00506)
[15] = target: LYN (human) (UniProt P07948)
[16] = target: CHEK1 (human) (UniProt O14757)
[17] = target: RPS6KA1 KD1 KD2 (human) (UniProt Q15418)
[18] = target: EPHB4 (human) (UniProt P54760)
[19] = target: TAOK1 (human) (UniProt Q7L7X3)
[20] = target: PRKG1 (human) (UniProt Q13976)
[21] = target: WEE1 (human) (UniProt P30291)
[22] = target: ABL2 (human) (UniProt P42684)
[23] = target: MYO3B (human) (UniProt Q8WXR4)
[24] = target: CDC42BPA (human) (UniProt Q5VT25)
[25] = target: CAMK1D (human) (UniProt Q8IU85)
[26] = target: INSR (human) (UniProt P06213)
[27] = target: OXSR1 (human) (UniProt O95747)
[28] = target: ULK2 (human) (UniProt Q8IYT8)
[29] = target: FGR (human) (UniProt P09769)
[30] = target: NUAK1 (human) (UniProt O60285)
[31] = target: SRMS (human) (UniProt Q9H3Y6)
[32] = target: CAMKK2 (human) (UniProt Q96RR4)
[33] = target: DAPK2 (human) (UniProt Q9UIK4)
[34] = target: EPHA6 (human) (UniProt Q9UF33)
[35] = target: JAK2 JH1 JH2 (human) (UniProt O60674)
[36] = target: DYRK1B (human) (UniProt Q9Y463)
[37] = target: PLK3 (human) (UniProt Q9H4B4)
[38] = target: RPS6KA4 KD2 (human) (UniProt O75676)
[39] = target: DSTYK (human) (UniProt Q6XUX3)
[40] = target: ERBB2 (human) (UniProt P04626)
[41] = target: LCK (human) (UniProt P06239)

LYN (human), sequence (P07948 whole entry, looked up): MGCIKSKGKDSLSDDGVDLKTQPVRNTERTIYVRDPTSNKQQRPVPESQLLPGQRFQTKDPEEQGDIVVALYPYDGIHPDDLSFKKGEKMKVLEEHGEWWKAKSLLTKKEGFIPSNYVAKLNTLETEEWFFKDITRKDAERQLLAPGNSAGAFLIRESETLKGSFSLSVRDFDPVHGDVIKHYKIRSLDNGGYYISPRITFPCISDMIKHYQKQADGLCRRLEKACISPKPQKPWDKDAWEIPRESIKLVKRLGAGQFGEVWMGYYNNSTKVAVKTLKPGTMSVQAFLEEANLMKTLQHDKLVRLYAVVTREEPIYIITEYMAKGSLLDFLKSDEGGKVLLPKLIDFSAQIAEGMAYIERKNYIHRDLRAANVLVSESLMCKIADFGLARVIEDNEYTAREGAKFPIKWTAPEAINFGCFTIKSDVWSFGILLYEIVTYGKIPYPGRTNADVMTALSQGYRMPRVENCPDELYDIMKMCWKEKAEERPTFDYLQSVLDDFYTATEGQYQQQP
STK38 (human), sequence (Q15208 whole entry, looked up): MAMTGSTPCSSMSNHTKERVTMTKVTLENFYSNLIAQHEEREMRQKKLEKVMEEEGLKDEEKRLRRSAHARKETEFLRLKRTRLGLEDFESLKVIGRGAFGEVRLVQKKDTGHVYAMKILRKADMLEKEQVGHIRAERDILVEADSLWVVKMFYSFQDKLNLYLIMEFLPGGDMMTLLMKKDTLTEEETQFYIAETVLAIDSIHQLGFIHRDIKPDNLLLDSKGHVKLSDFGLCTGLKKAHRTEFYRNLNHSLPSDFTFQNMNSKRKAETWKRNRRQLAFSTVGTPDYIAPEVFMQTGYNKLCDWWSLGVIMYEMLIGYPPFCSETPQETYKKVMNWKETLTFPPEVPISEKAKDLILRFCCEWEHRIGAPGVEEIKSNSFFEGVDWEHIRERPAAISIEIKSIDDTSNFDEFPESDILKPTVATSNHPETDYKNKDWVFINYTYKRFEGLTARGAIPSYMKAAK
NUAK1 (human), sequence (O60285 whole entry, looked up): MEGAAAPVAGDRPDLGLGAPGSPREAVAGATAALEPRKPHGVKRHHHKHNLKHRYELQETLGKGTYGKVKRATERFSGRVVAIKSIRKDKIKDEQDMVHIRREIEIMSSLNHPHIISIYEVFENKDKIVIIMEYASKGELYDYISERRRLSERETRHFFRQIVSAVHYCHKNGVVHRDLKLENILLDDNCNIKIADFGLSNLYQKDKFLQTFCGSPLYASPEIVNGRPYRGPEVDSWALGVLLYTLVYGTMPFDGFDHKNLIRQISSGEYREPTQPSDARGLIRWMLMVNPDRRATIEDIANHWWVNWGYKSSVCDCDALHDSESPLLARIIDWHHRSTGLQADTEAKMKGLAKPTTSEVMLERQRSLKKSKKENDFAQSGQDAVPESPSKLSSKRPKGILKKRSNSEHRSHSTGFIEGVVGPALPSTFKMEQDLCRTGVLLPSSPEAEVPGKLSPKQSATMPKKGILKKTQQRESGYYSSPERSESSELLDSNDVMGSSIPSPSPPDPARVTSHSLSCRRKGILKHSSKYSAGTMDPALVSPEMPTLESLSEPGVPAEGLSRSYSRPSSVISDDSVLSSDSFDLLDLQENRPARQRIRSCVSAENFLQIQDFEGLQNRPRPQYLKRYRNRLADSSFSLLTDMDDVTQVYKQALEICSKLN
FGR (human), sequence (P09769 whole entry, looked up): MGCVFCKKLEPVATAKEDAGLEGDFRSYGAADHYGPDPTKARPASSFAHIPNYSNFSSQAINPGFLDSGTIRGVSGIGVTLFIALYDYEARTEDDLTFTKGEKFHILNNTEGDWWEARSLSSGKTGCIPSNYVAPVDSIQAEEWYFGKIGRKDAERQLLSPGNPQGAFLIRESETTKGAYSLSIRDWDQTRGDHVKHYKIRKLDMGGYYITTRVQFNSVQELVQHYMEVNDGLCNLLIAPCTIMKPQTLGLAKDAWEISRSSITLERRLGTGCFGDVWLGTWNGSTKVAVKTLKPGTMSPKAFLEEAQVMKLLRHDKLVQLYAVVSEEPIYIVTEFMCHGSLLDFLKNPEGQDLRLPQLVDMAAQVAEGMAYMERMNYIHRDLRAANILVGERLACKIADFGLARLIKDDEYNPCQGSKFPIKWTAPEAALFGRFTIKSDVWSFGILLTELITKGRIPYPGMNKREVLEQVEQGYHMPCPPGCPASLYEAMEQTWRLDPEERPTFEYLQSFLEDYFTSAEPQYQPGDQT
INSR (human), sequence (P06213 whole entry, looked up): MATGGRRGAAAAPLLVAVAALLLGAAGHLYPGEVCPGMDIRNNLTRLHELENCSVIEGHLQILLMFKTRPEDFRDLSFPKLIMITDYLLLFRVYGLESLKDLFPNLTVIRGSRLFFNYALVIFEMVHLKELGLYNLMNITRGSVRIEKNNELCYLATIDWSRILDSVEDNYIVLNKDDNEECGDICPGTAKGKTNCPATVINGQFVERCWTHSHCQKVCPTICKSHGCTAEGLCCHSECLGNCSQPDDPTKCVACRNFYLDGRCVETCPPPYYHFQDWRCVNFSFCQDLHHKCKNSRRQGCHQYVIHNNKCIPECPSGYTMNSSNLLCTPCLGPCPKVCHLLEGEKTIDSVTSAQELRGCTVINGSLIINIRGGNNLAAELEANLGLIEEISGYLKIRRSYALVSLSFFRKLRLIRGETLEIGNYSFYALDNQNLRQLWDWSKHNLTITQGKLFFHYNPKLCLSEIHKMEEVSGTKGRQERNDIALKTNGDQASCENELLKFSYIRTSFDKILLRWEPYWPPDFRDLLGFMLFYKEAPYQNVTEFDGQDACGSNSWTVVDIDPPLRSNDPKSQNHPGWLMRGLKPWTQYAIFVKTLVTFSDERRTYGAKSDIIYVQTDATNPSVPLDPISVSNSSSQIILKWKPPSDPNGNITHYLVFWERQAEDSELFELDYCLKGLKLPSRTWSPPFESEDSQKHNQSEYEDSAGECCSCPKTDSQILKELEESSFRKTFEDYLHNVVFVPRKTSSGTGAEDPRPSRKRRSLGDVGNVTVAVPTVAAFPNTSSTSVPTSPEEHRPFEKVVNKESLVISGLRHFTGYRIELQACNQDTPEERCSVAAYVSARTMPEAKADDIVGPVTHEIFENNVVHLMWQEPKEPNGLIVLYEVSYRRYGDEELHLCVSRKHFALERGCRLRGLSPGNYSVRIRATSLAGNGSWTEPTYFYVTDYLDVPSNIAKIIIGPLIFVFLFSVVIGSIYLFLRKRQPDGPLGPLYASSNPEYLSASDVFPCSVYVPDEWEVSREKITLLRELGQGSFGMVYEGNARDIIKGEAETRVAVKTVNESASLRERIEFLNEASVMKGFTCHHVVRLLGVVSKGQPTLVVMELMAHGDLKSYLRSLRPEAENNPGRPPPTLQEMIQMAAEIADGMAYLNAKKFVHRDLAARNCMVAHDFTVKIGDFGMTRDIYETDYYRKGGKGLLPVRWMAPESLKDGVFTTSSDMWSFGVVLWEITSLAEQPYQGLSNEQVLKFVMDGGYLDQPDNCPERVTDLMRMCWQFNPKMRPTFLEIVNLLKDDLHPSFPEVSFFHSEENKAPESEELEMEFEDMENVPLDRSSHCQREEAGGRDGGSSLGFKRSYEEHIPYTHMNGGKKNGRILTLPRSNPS
PAK7 (human), sequence (Q9P286 whole entry, looked up): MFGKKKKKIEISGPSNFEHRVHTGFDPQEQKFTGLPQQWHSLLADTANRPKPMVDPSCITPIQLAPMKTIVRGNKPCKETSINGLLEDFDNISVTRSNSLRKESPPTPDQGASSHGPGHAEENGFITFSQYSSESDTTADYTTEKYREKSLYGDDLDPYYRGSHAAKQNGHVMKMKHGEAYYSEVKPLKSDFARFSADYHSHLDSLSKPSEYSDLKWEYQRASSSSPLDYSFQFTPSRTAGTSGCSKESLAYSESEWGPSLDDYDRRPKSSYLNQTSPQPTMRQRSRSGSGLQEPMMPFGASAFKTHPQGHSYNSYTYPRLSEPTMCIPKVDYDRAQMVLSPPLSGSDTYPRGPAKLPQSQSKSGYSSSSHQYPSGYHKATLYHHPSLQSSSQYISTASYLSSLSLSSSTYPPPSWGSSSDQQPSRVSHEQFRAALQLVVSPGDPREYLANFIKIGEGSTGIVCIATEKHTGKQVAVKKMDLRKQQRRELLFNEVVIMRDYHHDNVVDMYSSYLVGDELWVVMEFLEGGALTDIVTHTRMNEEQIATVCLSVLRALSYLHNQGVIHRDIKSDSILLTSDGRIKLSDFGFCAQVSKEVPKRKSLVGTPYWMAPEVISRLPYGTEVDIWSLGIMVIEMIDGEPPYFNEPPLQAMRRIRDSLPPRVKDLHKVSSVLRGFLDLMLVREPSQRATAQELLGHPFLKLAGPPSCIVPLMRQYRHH
SRMS (human), sequence (Q9H3Y6 whole entry, looked up): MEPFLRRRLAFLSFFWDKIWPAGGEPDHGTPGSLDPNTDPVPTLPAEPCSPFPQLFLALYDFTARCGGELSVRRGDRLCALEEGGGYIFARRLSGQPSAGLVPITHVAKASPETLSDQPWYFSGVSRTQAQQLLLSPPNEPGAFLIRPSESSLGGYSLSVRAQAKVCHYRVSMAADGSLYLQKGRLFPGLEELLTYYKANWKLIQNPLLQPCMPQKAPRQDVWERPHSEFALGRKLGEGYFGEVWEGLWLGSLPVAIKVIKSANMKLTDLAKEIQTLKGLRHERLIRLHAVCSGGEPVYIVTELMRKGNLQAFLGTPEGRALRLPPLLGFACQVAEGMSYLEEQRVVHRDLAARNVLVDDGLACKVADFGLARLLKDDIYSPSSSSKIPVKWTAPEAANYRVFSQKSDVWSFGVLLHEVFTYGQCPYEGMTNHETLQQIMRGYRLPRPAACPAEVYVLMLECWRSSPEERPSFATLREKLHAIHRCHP

Row | Compound | residual activity [1] [%] | residual activity [2] [%] | residual activity [3] [%] | residual activity [4] [%] | residual activity [5] [%] | residual activity [6] [%] | residual activity [7] [%] | residual activity [8] [%] | residual activity [9] [%] | residual activity [11] [%] | residual activity [12] [%] | residual activity [13] [%] | residual activity [14] [%] | residual activity [15] | residual activity [16] [%] | residual activity [17] [%] | residual activity [18] [%] | residual activity [19] [%] | residual activity [20] | residual activity [21] [%] | further results
1 | COc1cc2c(cc1OC)-c1[nH]nc(Nc3cccc(F)c3)c1C2 | 93.2 | 102 | 97.2 | 102 | 61.3 | 96.5 | 95.3 | 87.1 | 98.4 | 103 | 93 | 113 | 103 | 60.2% and 77.5% | 92.4 | 84.1 | 95.3 | 76.3 | 104% and 95.2% | 93 | residual activity [10]: 93.8%; residual activity [22]: 21.4%; residual activity [23]: 107%; residual activity [24]: 119%; residual activity [25]: 89.8%; residual activity [26]: 101%; residual activity [27]: 121%; residual activity [28]: 97.3%; residual activity [29]: 47.2%; residual activity [30]: 88.5%; residual activity [31]: 99.9%; residual activity [32]: 86.8%; residual activity [33]: 86.7%; residual activity [34]: 82.7%; residual activity [35]: 107%; residual activity [36]: 102%; residual activity [37]: 94.9%; residual activity [38]: 99.8%; residual activity [39]: 93.3%; residual activity [40]: 101%
2 | COc1cc2c(N3CCN(C(=O)Nc4ccc(OC(C)C)cc4)CC3)ncnc2cc1OCCCN1CCCCC1 | 87.5 | 81.7 | 101 | 108 | 86.6 | 101 | 100 | 101 | 97.6 | 96.2 | 98 | 99.1 | 93.4 | 103% and 95.6% | 108 | 94.8 | 95 | 103 | 102% and 82.5% | 97.5 | residual activity [41]: 87.1%; residual activity [23]: 88.5%; residual activity [24]: 106%; residual activity [25]: 110%; residual activity [26]: 99.3%; residual activity [27]: 95.8%; residual activity [28]: 100%; residual activity [29]: 94%; residual activity [30]: 104%; residual activity [31]: 95.8%; residual activity [32]: 101%; residual activity [33]: 104%; residual activity [34]: 103%; residual activity [35]: 101%; residual activity [36]: 97.9%; residual activity [37]: 99.3%; residual activity [38]: 120%; residual activity [39]: 92.7%; residual activity [40]: 104%
3 | COc1cc2c(Nc3ccc(Br)cc3F)ncnc2cc1OCC1CCN(C)CC1 | 93.5 | 93.2 | 33 | 106 | 11.3 | 105 | 96.1 | 102 | 97.4 | 79.7 | 92.2 | 100 | 99 | 10.8% and 16.7% | 94.4 | 102 | 13 | 103 | 96.6% and 99.8% | 95.1 | residual activity [10]: 94.8%; residual activity [22]: 14%; residual activity [23]: 84.2%; residual activity [24]: 83.7%; residual activity [25]: 90.6%; residual activity [26]: 102%; residual activity [27]: 100%; residual activity [28]: 108%; residual activity [29]: 30%; residual activity [30]: 92.7%; residual activity [31]: 98.8%; residual activity [32]: 102%; residual activity [33]: 93.3%; residual activity [34]: 3.27%; residual activity [35]: 102%; residual activity [36]: 93%; residual activity [37]: 95%; residual activity [38]: 110%; residual activity [39]: 96%; residual activity [40]: 72.2%
